In patent US6426355B1, “Heterocyclic carboxamide-containing thiourea inhibitors of herpes viruses containing phenylenediamine group” (American Home Products, priority 1998, dated 2002):
Converted amounts (≈) assume the structure as drawn.

Assays:
[1] = tested on: HCMV recombinant mutant virus (RV145); assay: HCMV microtiter plate assay (beta-glucuronidase reporter); type: cell-based, Human Cytomegalovirus; conditions: HCMV in human foreskin fibroblasts
Description: Ninety-six well plate cultures of human foreskin fibroblasts are infected in the presence of inhibitor compound with a HCMV recombinant mutant virus whose genome contains the prokaryotic beta-glucuronidase gene (Jefferson, R. A., S. M. Burgess, and D. Hirsh. 1986. Beta-glucuronidase from Escherichia coli as a gene fusion marker. Proc. Natl. Acad. Sci. USA 83:8447-8451) whose expression is controlled by a viral promoter. An example of such a virus is RV145 (Jones, T. R., V. P. Muzithras, and Y. Gluzman. 1991. Replacement mutagenesis of the human cytomegalovirus genome: US10 and US11 gene products are nonessential. J. Virol. 65:5860-5872). Since it is under the control of a viral promoter, beta-glucuronidase expression is an indirect indicator of growth and replication of HCMV in this assay. At 96 hours post-infection, the infected cell lysates are prepared (using 50 mM sodium phosphate [pH7.0] containing 0.1% Triton X-100 and 0.1% sarkosyl) and assayed for beta-glucuronidase activity using a substrate for the enzyme which when cleaved yields either a product which can be measured colorimetrically in a spectrophotometer or fluorescently in a microfluorimeter. Examples of such substrates are p-nitrophenyl-beta-D-glucuronide and methylumbelliferylglucuronide, respectively. The presence of an antiviral compound is indicated by the reduced expression of the HCMV genome resident beta-glucuronidase gene, compared to the absence of inhibitor. […] Data from this assay generated using varying amounts of inhibitor compound is also used to estimate the IC50 of an inhibitor compound.

HSV-1 = assay: HSV Antiviral (ELISA) assay; type: cell-based; conditions: HSV-1 in Vero cells
Protocol: Vero cells (ATCC #CCL-81) are plated on 96-well tissue culture plates at 3.5×10^4 cells per 100 μl tissue culture DMEM (Dulbecco's modified Eagle media) supplemented with 2% fetal bovine serum (FBS) in each well. After overnight incubation @ 37° C. (in 5% CO2) and 30 minutes prior to infection with HSV-1 (multiplicity of infection equal to 0.006), cells are either untreated, or treated with test compound (multiple concentrations) or reference standard drug control. After approximately 24 hours post-infection incubation @ 37° C. (in 5% CO2), cells are fixed for ELISA assay. The primary antibody is murine anti-HSV glycoprotein D monoclonal primary antibody and the secondary antibody is goat anti-mouse IgG linked to β-galactosidase. Thus the extent of viral replication is determined by assessing β-galactosidase activity by quantifying the generation of the 4-methyl umbelliferone fluorescent cleavage product after addition of the methyl umbelliferyl-β-D-galactoside (Sigma #M1633) substrate on a microfluorimeter (365 nm for excitation and 450 nm for emission). Antiviral activity (IC50) of the test compound is determined by comparing the flourescence obtained in absence of compound to that obtained in the presence of compound.

VZV strain Ellen = assay: VZV Antiviral (ELISA) assay; type: cell-based; conditions: VZV strain Ellen in HFF cells
Protocol: For the generation of stock VZV to be used in the assay, VZV strain Ellen (ATCC #VR-1367) is used to infect human foreskin fibroblast (HFF) cells at low multiplicity (less than 0.1) and incubated overnight at 37° C. in 5% CO2. After the overnight incubation, the mixture of uninfected and VZV-infected HFF infected cells are then harvested and added to each well of 96-well plates (3.5×10^4 cells in 100 μl DMEM supplemented with 2% FBS) which contain test compound or the reference standard drug control (in 100 μl DMEM supplemented with 2% FBS per well). These cells are incubated for three days at 37° C. in 5% CO2, then fixed for ELISA assay. The primary antibody is murine anti-VZV glycoprotein II monoclonal antibody (Applied Biosystems, Inc. #13-145-100) and the secondary antibody is goat anti-mouse IgG linked to β-galactosidase. Thus the extent of viral replication is determined by assessing β-galactosidase activity by quantifying the generation of the 4-methyl umbelliferone fluorescent cleavage product after addition of the methyl umbelliferyl-β-D-galactoside (Sigma #M1633) substrate on a microfluorimeter (365 nm for excitation and 450 nm for emission). Antiviral activity (IC50) of the test compound is determined by comparing the flourescence obtained in absence of compound to that obtained in the presence of compound.

| Structure (SMILES) | IC50 (ug/ml) HCMV [1] | IC50 (ug/ml) HSV (HSV-1) | IC50 (ug/ml) VZV (VZV strain Ellen) |
| --- | --- | --- | --- |
| O=C(Nc1ccc(NC(=S)NCCSc2cccc(Br)c2)cc1)c1ccco1 [Example 679] | 0.01 µg/mL (≈ 0.021 µM) | 10 µg/mL (≈ 21 µM) |  |
| O=C(Nc1ccc(NC(=S)NCCc2cc(F)cc(F)c2)cc1)c1csnn1 [Example 720] | 0.01 µg/mL (≈ 0.0238 µM) | >10 µg/mL |  |
| O=C(Nc1ccc(NC(=S)NCCc2ccccc2F)cc1)c1csnn1 [Example 684] | 0.005 µg/mL (≈ 0.0125 µM) | 10 µg/mL (≈ 24.9 µM) |  |
| O=C(Nc1ccc(NC(=S)NCc2cccc(I)c2)cc1)c1ccco1 [Example 662] | 0.03 µg/mL (≈ 0.0628 µM) | >10 µg/mL |  |
| CN(C)c1cc(CCNC(=S)Nc2ccc(NC(=O)c3csnn3)cc2)cc(C(F)(F)F)c1 [Example 674] | 0.006 µg/mL (≈ 0.0121 µM) | >10 µg/mL |  |
| O=C(Nc1ccc(NC(=S)NCCSc2ccc(Cl)c(Cl)c2)cc1)c1csnn1 [Example 710] | 0.006 µg/mL (≈ 0.0124 µM) | >10 µg/mL |  |
| O=C(Nc1ccc(NC(=S)Nc2ccc(Cl)c(C(F)(F)F)c2)cc1)c1cocn1 [Example 714] | 0.02 µg/mL (≈ 0.0454 µM) | >10 µg/mL |  |
| CC(C)(C)c1ccc(CNC(=S)Nc2ccc(NC(=O)c3cscn3)cc2)cc1 [Example 747] | 0.002 µg/mL (≈ 0.00471 µM) | >10 µg/mL |  |
| O=C(Nc1ccc(NC(=S)Nc2cc(C(F)(F)F)cc(C(F)(F)F)c2)cc1)c1cscn1 [Example 701] | 0.008 µg/mL (≈ 0.0163 µM) | >10 µg/mL |  |
| O=C(Nc1ccc(NC(=S)NCCOc2cc(C(F)(F)F)ccc2F)cc1)c1csnn1 [Example 737] | 0.005 µg/mL (≈ 0.0103 µM) | >10 µg/mL |  |
| O=C(Nc1ccc(NC(=S)NCCOc2ccc(Cl)c(Cl)c2)cc1)c1csnn1 [Example 703] | 0.007 µg/mL (≈ 0.0149 µM) | >10 µg/mL |  |
| O=C(Nc1ccc(NC(=S)NC(CO)c2ccccc2)cc1)c1csnn1 (stereo not drawn) [Example 726] |  | >10 µg/mL |  |
| CN(C)c1cc(CNC(=S)Nc2ccc(NC(=O)c3csnn3)cc2)cc(C(F)(F)F)c1 [Example 618] | 0.0016 µg/mL (≈ 0.00333 µM) |  | >10 µg/mL |
| CC(NC(=S)Nc1ccc(NC(=O)c2cscn2)cc1)c1ccc(Cl)cc1F (stereo not drawn) [Example 851] | 0.017 µg/mL (≈ 0.0391 µM) |  | 1.43 µg/mL (≈ 3.29 µM) |
| CCCC(NC(=S)Nc1ccc(NC(=O)c2csnn2)cc1)c1cc(C(F)(F)F)cc(C(F)(F)F)c1 (stereo not drawn) [Example 858] | 0.0007 µg/mL (≈ 0.00128 µM) |  | >7.5 µg/mL |
| CC(NC(=S)Nc1ccc(NC(=O)c2cscn2)cc1)c1cc(F)cc(C(F)(F)F)c1 (stereo not drawn) [Example 831] | 0.0011 µg/mL (≈ 0.00235 µM) |  | >7.5 µg/mL |
| Cc1cccc(C(C)NC(=S)Nc2ccc(NC(=O)c3cscn3)cc2)c1 (stereo not drawn) [Example 837] | 0.03 µg/mL (≈ 0.0757 µM) |  | 3.60 µg/mL (≈ 9.08 µM) |
| CC(NC(=S)Nc1ccc(NC(=O)c2cscn2)cc1)c1cccc(F)c1 (stereo not drawn) [Example 842] | 0.02 µg/mL (≈ 0.0499 µM) |  | 1.55 µg/mL (≈ 3.87 µM) |
| CC(NC(=S)Nc1ccc(NC(=O)c2cscn2)cc1)c1ccc(C(F)(F)F)cc1F (stereo not drawn) [Example 832] | 0.001 µg/mL (≈ 0.00213 µM) |  | >7.5 µg/mL |
| COc1ccc(CCNC(=S)Nc2ccc(NC(=O)c3ccco3)cc2)cc1OC [Example 611] | 0.5 µg/mL (≈ 1.18 µM) |  | >10 µg/mL |
| CC(C)(NC(=S)Nc1ccc(NC(=O)c2csnn2)cc1)c1cc(C(F)(F)F)cc(C(F)(F)F)c1 [Example 861] | 0.002 µg/mL (≈ 0.00375 µM) |  | >7.5 µg/mL |
| CC(C)(NC(=S)Nc1ccc(NC(=O)c2csnn2)cc1)c1ccccc1 [Example 728] |  | 9 µg/mL (≈ 22.6 µM) |  |

| Structure (SMILES) | IC50 (ug/ml) HCMV [1] | IC50 (ug/ml) HSV (HSV-1) | IC50 (ug/ml) VZV (VZV strain Ellen) |
| --- | --- | --- | --- |
| O=C(Nc1ccc(NC(=S)NCCCc2ccccc2)cc1)c1csnn1 [Example 613] | 0.011 µg/mL (≈ 0.0277 µM) |  | >10 µg/mL |
| O=C(Nc1ccc(NC(=S)NCc2ccc3c(c2)OCO3)cc1)c1ccco1 [Example 546] |  | 1.7 µg/mL (≈ 4.3 µM) | 7 µg/mL (≈ 17.7 µM) |
| O=C(Nc1ccc(NC(=S)NCc2cc(Cl)cc(Cl)c2)cc1)c1ccco1 [Example 582] | 0.01 µg/mL (≈ 0.0238 µM) |  | 8 µg/mL (≈ 19 µM) |
| CC(NC(=S)Nc1ccc(NC(=O)c2csnn2)cc1)c1ccc(C#N)cc1 (stereo not drawn) [Example 822] | 0.018 µg/mL (≈ 0.0441 µM) |  | >7.5 µg/mL |
| CC(NC(=S)Nc1ccc(NC(=O)c2cscn2)cc1)c1cc(C(F)(F)F)ccc1F (stereo not drawn) [Example 833] | 0.0019 µg/mL (≈ 0.00406 µM) |  | >7.5 µg/mL |
| O=C(Nc1ccc(NC(=S)NCc2cc(F)cc(C(F)(F)F)c2)cc1)c1csnn1 [Example 587] | 0.005 µg/mL (≈ 0.011 µM) |  | >10 µg/mL |
| O=C(Nc1ccc(NC(=S)NCCCc2ccccc2)cc1)c1ccco1 [Example 612] | 0.049 µg/mL (≈ 0.129 µM) |  | 1 µg/mL (≈ 2.64 µM) |
| CN(C)c1cc(NC(=S)Nc2ccc(NC(=O)c3csnn3)cc2)cc(C(F)(F)F)c1 [Example 571] | 0.013 µg/mL (≈ 0.0279 µM) |  | >10 µg/mL |
| O=C(Nc1ccc(NC(=S)NCc2cc(F)cc(F)c2)cc1)c1csnn1 [Example 581] | 0.01 µg/mL (≈ 0.0247 µM) |  | >10 µg/mL |
| CCC(NC(=S)Nc1ccc(NC(=O)c2csnn2)cc1)c1cc(C(F)(F)F)cc(C(F)(F)F)c1 (stereo not drawn) [Example 857] | 0.0006 µg/mL (≈ 0.00112 µM) |  | >7.5 µg/mL |
| C[C@@H](NC(=S)Nc1ccc(NC(=O)c2csnn2)cc1)c1ccc(Cl)cc1 [Example 821] | 0.005 µg/mL (≈ 0.012 µM) |  | >7.5 µg/mL |
| CC(NC(=S)Nc1ccc(NC(=O)c2cscn2)cc1)c1ccc(Br)cc1F (stereo not drawn) [Example 841] | 0.0011 µg/mL (≈ 0.00229 µM) |  | 0.77 µg/mL (≈ 1.61 µM) |
| O=C(Nc1ccc(NC(=S)NCCc2cccc(F)c2)cc1)c1ccco1 [Example 573] | 0.05 µg/mL (≈ 0.13 µM) |  | >10 µg/mL |
| O=C(Nc1ccc(NC(=S)Nc2ccc(I)c(C(F)(F)F)c2)cc1)c1csnn1 [Example 615] | 0.005 µg/mL (≈ 0.0091 µM) |  | >10 µg/mL |
| CC(NC(=S)Nc1ccc(NC(=O)c2cscn2)cc1)c1ccc(F)c(F)c1 (stereo not drawn) [Example 840] | 0.0015 µg/mL (≈ 0.00358 µM) |  | 0.14 µg/mL (≈ 0.335 µM) |
| CCC(NC(=S)Nc1ccc(NC(=O)c2cscn2)cc1)c1cc(C(F)(F)F)cc(C(F)(F)F)c1 (stereo not drawn) [Example 865] | 0.0001 µg/mL (≈ 0.000188 µM) |  | >7.5 µg/mL |
| O=C(Nc1ccc(NC(=S)NCCc2ccccc2)cc1)c1csnn1 [Example 575] | 0.017 µg/mL (≈ 0.0443 µM) |  | 2 µg/mL (≈ 5.22 µM) |
| O=C(Nc1ccc(NC(=S)NCc2cc(C(F)(F)F)cc(C(F)(F)F)c2)cc1)c1c[nH]cn1 [Example 862] | 0.1 µg/mL (≈ 0.205 µM) |  | >7.5 µg/mL |
| O=C(Nc1ccc(NC(=S)NCc2cc(Cl)cc(Cl)c2)cc1)c1csnn1 [Example 584] | 0.0026 µg/mL (≈ 0.00593 µM) |  | >10 µg/mL |
| CC(NC(=S)Nc1ccc(NC(=O)c2csnn2)cc1)c1cc(C(F)(F)F)cc(C(F)(F)F)c1 (stereo not drawn) [Example 818] | 0.0016 µg/mL (≈ 0.00308 µM) |  | >7.5 µg/mL |
| O=C(Nc1ccc(NC(=S)NCCc2cc(C(F)(F)F)cc(C(F)(F)F)c2)cc1)c1ccco1 [Example 614] | 0.024 µg/mL (≈ 0.0479 µM) |  | 7 µg/mL (≈ 14 µM) |
